Measurements taken from US6458580B1, “Fungal sulphur source and method of using the same” (Commonwealth Scientific and Industrial Research Organisation, priority 1997, dated 2002).
Values joined by “and” are separate entries in the source; they are usually repeats but may differ in a detail not shown here. Identical values can stand only once.

Experiments:
[1] = system: Neocallimastix isolates LM1 and TGB1; Piromyces isolates SM1, CS15 and TZB2; assay: In vitro growth of selected fungal isolates at different doses of MPA; format: cell-based; conditions: MPA 0-1.6 mM, media with 0.5% CHO, FIGS. 2a and 2b
Protocol: Five isolates were recovered in standard media from cryopreservation and one isolate was obtained from the culture collection. Table 2 below indicates nature of isolates.
Each isolate was transferred from standard media to a modification of the low sulphur media described in Example 1. Carbohydrates (glucose+cellobiose) were added to give either 0.2% (in subculture phase ) or 0.5% (in test phase)
. Triplicate tubes of the three concentrations were inoculated with each isolate and after 3-4 days subcultured using the tubes with the best apparent growth. […] This was to be the final assessment however as some growth was obtained in the 0 controls so all tubes were subcultured again into the same type of media. After a weeks incubation growth was determined by the decrease in media pH as described in Example 1.

Total Bacteria = assay: Effect of infusion on total bacteria in rumen fluid; format: in vivo; set-up: Total Bacteria, MPA: unit not given here; conditions: individual sheep and Aver. n = 13; for Total Bacteria, MPA: MPA infused at 192 mg Sulphur/sheep/day; for Total Bacteria, log (+): versus control period
Protocol: (§1) Feed was prepared as previously described (see example 4). Initially 22 sheep were fed 1 kg of alkali straw/day in the animal house for 4 days to select out sheep not eating the diet. 19 sheep were weighted and transferred to metabolism cages and feed the alkali straw diet ad-lib. Sheep were fed and on the following day the feed refusal weighted and if less then 100 g remained a further 100 g was fed; if 100-200g of feed remained the sheep was given the same amount of feed; if over 200 g of feed was left the sheep was given 100 g less feed. Over the following week another 6 sheep were moved out of the experiment (usually due to very low or erratic intakes). […] After 14 days infusion the collection period of 7 days commenced. At the end of the collection period samples of rumen digesta were taken for microbiology and other analyses. Rumen fluid was collected and fungal zoospores and total bacteria assessed as described in example 4 (the total bacteria were assessed on the same medium but without antibiotics). Cellulolytic bacteria were assessed by a most probable number count. Rumen fluid was serially diluted and subsamples of each dilution inoculated into 5 culture tubes containing an anaerobic medium containing rumen fluid and strips of filter paper. After incubation the presence of cellulolytic bacteria was detected by degradation of the paper and the numbers of positive tubes compared to tables to give a number of these bacteria in the original sample. Following the last sampling the infusion was stopped in the first group of sheep and on the following day the infusion treatment was begun in the other group of seven sheep. The second period (the crossover) was conducted in the same way as the first period with the same samples being taken at the same times.

Fungal Zoospores = assay: Effect of infusion on fungal zoospores in rumen fluid; format: in vivo, sheep; conditions: for Fungal Zoospores, MPA: MPA infused at 192 mg Sulphur/sheep/day; for Fungal Zoospores, MPA / Fungal Zoospores, log (+): log10 increase after infusion of MPA: individual sheep and Aver. n = 13; for Fungal Zoospores, log (+): log10 increase after infusion of MPA: versus control period
Protocol: as §1, with “times. The number of zoospores in samples of strained ruminal fluid can be used to follow zoosporogenesis in the rumen and it provides a relative estimate of the size of the anaerobic fungal population. (1) Strain a sample of ruminal digesta through an open weave cloth, and collect the filtered fluid in a CO2-filled flask. (2) Serially dilute the fluid ten-fold in anaerobic dilution solution (ADS) to a final dilution of 10^−3. To do this, transfer 1 ml volumes using 1 ml disposable sterile syringes fitted with sterile 23 gauge (0.65 mm) needles to tubes containing 9 ml ADS, starting with fluid to form the 10^−1 dilution. Use a clean syringe at each dilution step. (3) Using a 1 ml syringe (and 23 ga. needle, as before) inoculate three roll tubes each with 0.2 ml of 10^−3 dilution. Immediately roll these tubes horizontally on ice until the agar sets. With the same syringe, inoculate three more roll tubes with 0.2 ml of 10^−2 dilution and roll them. Repeat with 10^−1 dilution and finally with undiluted fluid, if appropriate. (4) Incubate the roll tubes vertically at 39° C. for 5 d.” for “times.”

O=C(O)CCS [MPA, 3-mercaptopropanoic acid]
growth response of sheep versus non-sheep isolates [1]: no clear difference between the sheep and non-sheep isolates
Total Bacteria, MPA (Total Bacteria): 10.50 × 10^8 (2×) and 8.07 × 10^8 and 6.83 × 10^8 and 7.50 × 10^8 and 10.00 × 10^8 and 7.17 × 10^8 and 5.87 × 10^8 and 12.00 × 10^8 and 14.50 × 10^8 and 10.83 × 10^8 and 10.67 × 10^8 and 6.33 × 10^8
Total Bacteria, MPA (Total Bacteria; mean): 9.29 × 10^8
Total Bacteria, log (+) (Total Bacteria): 0.27 log and 0.31 log (2×) and −0.34 log (2×) and −0.17 log and 0.02 log and 0.05 log and 0.25 log (2×) and 0.29 log and 0.33 log and 0.10 log
Total Bacteria, log (+) (Total Bacteria; mean): 0.10 log
response in numbers of rumen fungi to infusion (Fungal Zoospores; 192 mg Sulphur/day/sheep, with the exception of one animal): strong, positive, response
Fungal Zoospores, MPA (Fungal Zoospores): 2567 per ml rumen fluid and 7083 per ml rumen fluid and 3050 per ml rumen fluid and 7283 per ml rumen fluid and 1783 per ml rumen fluid and 7250 per ml rumen fluid and 6167 per ml rumen fluid and 4417 per ml rumen fluid and 9017 per ml rumen fluid and 6467 per ml rumen fluid and 11167 per ml rumen fluid and 5383 per ml rumen fluid and 4900 per ml rumen fluid
Fungal Zoospores, MPA (Fungal Zoospores; mean): 5887 per ml rumen fluid
Fungal Zoospores, log (+): log10 increase after infusion of MPA (Fungal Zoospores): 2.7 log10 and 2.5 log10 and 2.0 log10 and 2.3 log10 and 0.4 log10 and 0.5 log10 and 0.7 log10 and 0.8 log10 and 0.2 log10 and 0.6 log10 and 1.0 log10 (2×) and 1.1 log10
Fungal Zoospores, log (+): log10 increase after infusion of MPA (Fungal Zoospores; mean): 1.20 log10
